Measured values as given in ChEMBL document CHEMBL4823263, “Discovery of 2-(3-(3-Carbamoylpiperidin-1-yl)phenoxy)acetic Acid Derivatives as Novel Small-Molecule Inhibitors of the β-Catenin/B-Cell Lymphoma 9 Protein-Protein Interaction” (J Med Chem, 2021).
The source made the active and inactive calls. The calls are words filed in the database; no cut-off is given here.

What was measured:
[1] = target: Protein Wnt-3a (Mus musculus) (UniProt P27467); experiment: Inhibition of mouse wnt3a expressed in human MDA-MB-231 cells assessed as Axin2 level at 30 uM incubated for […] by quantitative real-time PCR analysis relative to control; assay type: cell-based; parameters: scale not given: the % may be the effect or the level left
[2] = tested on: SW480; experiment: Antiproliferative activity against human SW480 cells incubated for 72 hrs by MTS assay; assay type: functional, cell-based; conditions: SW480, 72 h
[3] = target: T1, Cadherin-1 (Homo sapiens) (UniProt P12830); experiment: Disruption of full length beta-catenin/E-cadherin interaction in human HCT116 cells incubated for 24 hrs by co-immunoprecipitation assay; assay type: cell-based; conditions: HCT-116
T1 sequence (whole entry): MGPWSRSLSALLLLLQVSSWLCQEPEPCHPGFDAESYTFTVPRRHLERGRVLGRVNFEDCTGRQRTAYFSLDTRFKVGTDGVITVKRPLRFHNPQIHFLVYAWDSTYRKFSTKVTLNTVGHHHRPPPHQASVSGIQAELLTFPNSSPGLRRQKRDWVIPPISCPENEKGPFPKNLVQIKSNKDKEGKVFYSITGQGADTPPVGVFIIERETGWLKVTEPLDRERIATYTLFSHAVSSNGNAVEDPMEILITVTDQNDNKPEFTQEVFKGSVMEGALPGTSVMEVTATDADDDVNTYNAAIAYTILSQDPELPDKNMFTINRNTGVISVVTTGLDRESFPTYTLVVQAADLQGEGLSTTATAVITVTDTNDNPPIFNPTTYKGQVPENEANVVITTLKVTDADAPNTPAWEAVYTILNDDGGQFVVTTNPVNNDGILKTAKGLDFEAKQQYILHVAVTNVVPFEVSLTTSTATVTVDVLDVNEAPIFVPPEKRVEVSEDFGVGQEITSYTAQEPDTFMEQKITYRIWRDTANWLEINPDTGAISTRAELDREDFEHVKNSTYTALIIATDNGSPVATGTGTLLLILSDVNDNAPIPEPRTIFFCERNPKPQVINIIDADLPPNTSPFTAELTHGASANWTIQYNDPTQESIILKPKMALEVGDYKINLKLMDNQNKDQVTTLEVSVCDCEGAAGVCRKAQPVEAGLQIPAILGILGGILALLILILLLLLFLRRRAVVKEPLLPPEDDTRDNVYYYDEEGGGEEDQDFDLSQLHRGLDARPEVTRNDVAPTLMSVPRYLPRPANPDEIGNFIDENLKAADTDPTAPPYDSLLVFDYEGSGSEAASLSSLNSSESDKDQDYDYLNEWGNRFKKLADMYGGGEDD

[4] = Selectivity ratio of IC50 for human SW480 cells harboring beta-catenin pcDNA3.1 vector to IC50 for human SW480 cells harboring empty pcDNA3.1 vector
[5] = tested on: SW480; experiment: Antiproliferative activity against human SW480 cells harboring beta-catenin pcDNA3.1 vector incubated for 72 hrs by MTS assay; assay type: functional, cell-based; conditions: SW480, 72 h
[6] = tested on: HCT-116; experiment: Antiproliferative activity against human HCT116 cells incubated for 72 hrs by MTS assay; assay type: functional, cell-based; conditions: HCT-116, 72 h
[7] = target: Protein Wnt-3a (Homo sapiens) (UniProt P56704); experiment: Inhibition of Wnt3a in human SW480 cells assessed as LEF1 level at 3.3 uM incubated for […] by quantitative real-time PCR analysis relative to control; assay type: cell-based; parameters: scale not given: the % may be the effect or the level left
[8] = target: Protein Wnt-3a (Mus musculus) (UniProt P27467); experiment: Inhibition of mouse wnt3a expressed in human MDA-MB-231 cells assessed as Axin2 level at 3.3 uM incubated for […] by quantitative real-time PCR analysis relative to control; assay type: cell-based; parameters: scale not given: the % may be the effect or the level left
[9] = target: Protein Wnt-3a (Homo sapiens) (UniProt P56704); experiment: Inhibition of Wnt3a in human SW480 cells assessed as Axin2 level at 10 uM incubated for […] by quantitative real-time PCR analysis relative to control; assay type: cell-based; parameters: scale not given: the % may be the effect or the level left
[10] = target: Protein Wnt-3a (Mus musculus) (UniProt P27467); experiment: Inhibition of mouse wnt3a expressed in human MDA-MB-231 cells assessed as cyclin D1 level at 30 uM incubated for […] by quantitative real-time PCR analysis relative to control; assay type: cell-based; parameters: scale not given: the % may be the effect or the level left
[11] = tested on: SW480; experiment: (§1) Inhibition of Wnt/beta-catenin transactivation signalling in human SW480 cells harboring wild type tcf4 binding sites incubated for 24 hrs by TOPFlash luciferase assay; assay type: cell-based
[12] = as §1; assay type: cell-based
[13] = tested on: SW480; experiment: Inhibition of Wnt/beta-catenin transactivation signalling in human SW480 cells harboring mutant tcf4 binding sites assessed as relative activity at 3.125 uM incubated for 24 hrs by FOPFlash luciferase assay relative to control; assay type: cell-based; parameters: scale not given: the % may be the effect or the level left
[14] = Downregulation of HPRT level in human SW480 cells at 30 uM incubated for […] by quantitative real-time PCR analysis relative to control; assay type: ADME, cell-based; conditions: sw480, 30 µM
[15] = Downregulation of HPRT level in human SW480 cells at 10 uM incubated for […] by quantitative real-time PCR analysis relative to control; assay type: ADME, cell-based; conditions: sw480, 10 µM
[16] = tested on: SW480; experiment: Inhibition of Wnt/beta-catenin transactivation signalling in human SW480 cells harboring mutant tcf4 binding sites assessed as relative activity at 12.5 uM incubated for 24 hrs by FOPFlash luciferase assay relative to control; assay type: cell-based; parameters: scale not given: the % may be the effect or the level left
[17] = target: Protein Wnt-3a (Mus musculus) (UniProt P27467); experiment: Inhibition of mouse wnt3a expressed in human MDA-MB-231 cells assessed as cyclin D1 level at 3.3 uM incubated for […] by quantitative real-time PCR analysis relative to control; assay type: cell-based; parameters: scale not given: the % may be the effect or the level left
[18] = target: Protein Wnt-3a (Mus musculus) (UniProt P27467); experiment: Inhibition of mouse wnt3a expressed in human MDA-MB-231 cells assessed as HPRT level at 30 uM incubated for […] by quantitative real-time PCR analysis relative to control; assay type: cell-based; parameters: scale not given: the % may be the effect or the level left
[19] = tested on: SW480; experiment: Inhibition of Wnt signalling in human SW480 cells assessed as reduction in cyclinD1 expression incubated for 24 hrs by Western blot analysis; assay type: cell-based
[20] = Downregulation of HPRT in human MDA-MB-231 cells assessed as HPRT level at 3.3 uM incubated for […] by quantitative real-time PCR analysis relative to control; assay type: ADME, cell-based; conditions: mda-mb-231, 3.3 µM
[21] = target: Protein Wnt-3a (Mus musculus) (UniProt P27467); experiment: Inhibition of mouse wnt3a expressed in human MDA-MB-231 cells assessed as LEF1 level at 3.3 uM incubated for […] by quantitative real-time PCR analysis relative to control; assay type: cell-based; parameters: scale not given: the % may be the effect or the level left
[22] = target: beta-catenin-B-cell lymphoma 9 protein complex (Homo sapiens) (UniProt P35222+O00512); experiment: Disruption of beta-catenin/N-terminal biotinylated human BCL9 HD2 (350 to 375 residues) protein-protein interaction in human SW480 cells incubated for 1 hr followed by N-terminal biotinylated human BCL9 HD2 addition and measured after 2 hrs by pull-down assay; assay type: cell-based; conditions: time 3.0 hrs
[23] = target: Protein Wnt-3a (Mus musculus) (UniProt P27467); experiment: Inhibition of mouse wnt3a expressed in human MDA-MB-231 cells assessed as Axin2 level at 10 uM incubated for […] by quantitative real-time PCR analysis relative to control; assay type: cell-based; parameters: scale not given: the % may be the effect or the level left
[24] = target: Protein Wnt-3a (Mus musculus) (UniProt P27467); experiment: Inhibition of mouse wnt3a expressed in human MDA-MB-231 cells assessed as LEF1 level at 30 uM incubated for […] by quantitative real-time PCR analysis relative to control; assay type: cell-based; parameters: scale not given: the % may be the effect or the level left
[25] = tested on: SW480; experiment: Inhibition of Wnt signalling in human SW480 cells assessed as reduction in Axin2 expression incubated for 24 hrs by Western blot analysis; assay type: cell-based
[26] = target: Protein Wnt-3a (Homo sapiens) (UniProt P56704); experiment: Inhibition of Wnt3a in human SW480 cells assessed as cyclin D1 level at 30 uM incubated for […] by quantitative real-time PCR analysis relative to control; assay type: cell-based; parameters: scale not given: the % may be the effect or the level left

Sequence of Protein Wnt-3a (Mus musculus) (P27467 whole entry, the tested form may be a part): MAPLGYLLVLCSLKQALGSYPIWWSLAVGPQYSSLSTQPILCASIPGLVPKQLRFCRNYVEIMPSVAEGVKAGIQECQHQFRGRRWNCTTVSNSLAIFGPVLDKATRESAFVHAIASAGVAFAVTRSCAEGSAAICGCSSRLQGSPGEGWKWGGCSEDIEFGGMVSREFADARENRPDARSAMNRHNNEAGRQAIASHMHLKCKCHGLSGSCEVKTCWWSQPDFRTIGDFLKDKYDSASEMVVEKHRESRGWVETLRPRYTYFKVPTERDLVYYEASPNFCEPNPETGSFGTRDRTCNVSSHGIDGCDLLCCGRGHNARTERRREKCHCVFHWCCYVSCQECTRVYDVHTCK
Sequence of Protein Wnt-3a (Homo sapiens) (P56704 whole entry): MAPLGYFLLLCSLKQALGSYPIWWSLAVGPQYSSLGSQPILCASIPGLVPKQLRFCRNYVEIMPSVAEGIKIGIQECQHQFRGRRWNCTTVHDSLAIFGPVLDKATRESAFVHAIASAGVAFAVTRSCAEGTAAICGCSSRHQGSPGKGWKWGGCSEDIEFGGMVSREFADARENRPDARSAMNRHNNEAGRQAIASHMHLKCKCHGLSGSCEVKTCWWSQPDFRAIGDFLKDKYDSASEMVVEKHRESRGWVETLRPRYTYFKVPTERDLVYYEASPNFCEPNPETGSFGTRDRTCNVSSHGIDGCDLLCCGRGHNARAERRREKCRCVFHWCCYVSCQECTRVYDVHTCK

For CC(C)(Oc1cccc(N2CCC[C@H](C(=O)N(Cc3ccc(-c4cccs4)cc3)C3CC3)C2)c1)C(=O)NS(=O)(=O)c1ccc(C#N)cc1, the Activity [1] was 50%, the IC50 [2] was 16.3 µM and the Activity [3] was “inactive”. For the same compound, the “Ratio IC50” value [4] was 4, the IC50 [5] was 86 µM and the IC50 [6] was 29.6 µM. It also gave an Activity [7] of 80%, an Activity [8] of 69% and an Activity [9] of 72%. For the same compound, the Activity [10] was 66%, the Activity [11] was “Dose-Dependent Effect” and the IC50 [12] was 6.6 µM. For the same compound, the Activity [13] was 99%, the Activity [14] was 99% and the Activity [15] was 102%. The Activity [16] was 102%, the Activity [17] was 94% and the Activity [18] was 99%. The Activity [19] was “Dose-Dependent Effect”, the Activity [20] was 102% and the Activity [21] was 87%. For the same compound, the Activity [22] was “Dose-Dependent Effect”, the Activity [23] was 57% and the Activity [24] was 76%. The Activity [25] was “Dose-Dependent Effect” and the Activity [26] was 31%.
